System: K562 cells
Assay: Active form of platelet-like cells secreted from differentiated K562 cells, fluorescence microscopy
Format: cell-based, human
Experimental: OP9 cells were aliquoted at a density of 1×10^5 cells per well in 6-well plates and incubated for 24 hrs. After the OP9 cells were uniformly attached onto the bottom of the plates, K562 cells were layered at a density of 1×10^5 cells over the OP9 cells in the 6-well plates. The cells were treated with 40 μg/ml of (R)-NALPCE before incubation in a day-dependent manner for 5 days. […] The platelet-like cells were separated from the megakaryocytes by centrifuging the differentiated K562 cells at 500 rpm for 20 min and further centrifuging the supernatant at 3,000 rpm for 10 min.
A morphological comparison was made between the platelet-like cells and the pre-existing blood platelets using fibrinogen-coated slides. General slides (POLY-PREP, Sigma, U.S.A.) were coated with 20 μg/ml of fibrinogen in PBS ((R)-NALPCE-treated group) or with 1% bovine serum albumin (control) in PBS, and then incubated at 37° C. for 2 hrs in a humid atmosphere. A suspension of the separated platelet-like cells and the pre-existing blood platelets in PBS was placed on the slides. […] A drop of a mounting solution was spotted on the slides, which were then covered with a coverslip before observation under a fluorescence microscope. […] The cells thus stained were very gently washed three times with PBS and observed using a fluorescence microscope (Axiovision, Zeiss) with 400× magnification.

With `CCCCCCCCCCCCCCCCCC(=O)NC(COP(=O)([O-])OCC[N+](C)(C)C)C(=O)OC` [(R)-NALPCE, N-steroyl-O-phosphocholine-D-serine methyl ester] the “appearance of anucleate platelet-like cells” value (K562 cells on OP9 cells, 40 μg/ml, Day 5 after the treatment) was “a large number of anucleate platelet-like cells appeared” and the “activation of released anucleate cells” value (fibrinogen-coated slides, activators ADP, epinephrine, AYPGFK, MnCl2) was “activated in the same manner as the pre-existing blood platelets”.
